From patent US20110105491A1, “THIAZOLIDINE COMPOUNDS AS OREXIN RECEPTOR ANTAGONISTS” (priority 2008, published 2011)
Read-outs that look alike come from different tables or passages of the source.

How the values were obtained:
human orexin-1 receptor = target: T1, human orexin-1 receptor (Homo sapiens, UniProt O43613); assay: FLIPR calcium assay of orexin receptor antagonistic activity, CHO cells expressing human orexin-1 receptor; format: cell-based; settings: 3 nM orexin-A as agonist; not normalized; *2/*3 = geometric mean of n = 2/3 values; read-out: OX1 IC50
T1 construct: expressed in transfected cells; host or cells: Chinese hamster ovary (CHO) cells
T1 sequence (O43613 1-425): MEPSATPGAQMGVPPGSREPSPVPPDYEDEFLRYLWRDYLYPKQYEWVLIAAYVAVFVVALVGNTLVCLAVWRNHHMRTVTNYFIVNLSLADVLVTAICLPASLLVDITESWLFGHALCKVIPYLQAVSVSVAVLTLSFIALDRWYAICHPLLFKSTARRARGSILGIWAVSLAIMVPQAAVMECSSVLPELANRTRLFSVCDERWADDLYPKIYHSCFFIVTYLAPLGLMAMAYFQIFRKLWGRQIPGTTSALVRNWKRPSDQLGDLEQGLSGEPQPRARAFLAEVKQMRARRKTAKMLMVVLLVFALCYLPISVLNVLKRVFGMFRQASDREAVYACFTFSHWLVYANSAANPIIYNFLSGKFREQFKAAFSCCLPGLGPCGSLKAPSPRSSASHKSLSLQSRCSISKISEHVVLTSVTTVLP
Method: (§1) The orexin receptor antagonistic activity of the compounds of formula (I) is determined in accordance with the following experimental method.
(§2) Chinese hamster ovary (CHO) cells expressing the human orexin-1 receptor and the human orexin-2 receptor, respectively, are grown in culture medium (Ham F-12 with L-Glutamine) containing 300 μg/ml G418, […] penicillin, 100 μg/ml streptomycin and 10% heat inactivated fetal calf serum (FCS). The cells are seeded at 20′000 cells/well into 384-well black clear bottom sterile plates (Greiner). The seeded plates are incubated overnight at 37° C. in 5% CO2.
(§3) Human orexin-A as an agonist is prepared as 1 mM stock solution in MeOH:water (1:1), diluted in HBSS containing 0.1% bovine serum albumin (BSA), NaHCO3: 0.375 g/l and 20 mM HEPES for use in the assay at a final concentration of 3 nM.
(§4) Antagonists are prepared as 10 mM stock solution in DMSO, then diluted in 384-well plates using DMSO followed by a transfer of the dilutions into in HBSS containing 0.1% bovine serum albumin (BSA), NaHCO3: 0.375 g/l and 20 mM HEPES. On the day of the assay, 50 μl of staining buffer (HBSS containing 1% FCS, 20 mM HEPES, NaHCO3: 0.375 g/l, 5 mM probenecid (Sigma) and 3 μM of the fluorescent calcium indicator fluo-4 AM (1 mM stock solution in DMSO, containing 10% pluronic) is added to each well. The 384-well cell-plates are incubated for 50 min at 37° C. in 5% CO2 followed by equilibration at rt for 30-120 min before measurement.
(§5) Within the Fluorescent Imaging Plate Reader (FLIPR Tetra, Molecular Devices), antagonists are added to the plate in a volume of 10 μl/well, incubated for 10 min and finally […] of agonist is added. Fluorescence is measured for each well at 1 second intervals, and the height of each fluorescence peak is compared to the height of the fluorescence peak induced by 3 nM orexin-A with vehicle in place of antagonist. For each antagonist, the IC50 value (the concentration of compound needed to inhibit 50% of the agonistic response) is determined and may be normalized using the obtained IC50 value of a on-plate reference compound (normalized values in Table 1 are indicated by an asterisk *). Optimized conditions were achieved by adjustment of pipetting speed and cell splitting regime. The calculated IC50 values of the compounds may fluctuate depending on the daily cellular assay performance. Fluctuations of this kind are known to those skilled in the art.

human orexin-2 receptor = target: T2, human orexin-2 receptor (Homo sapiens, UniProt O43614); assay: FLIPR calcium assay of orexin receptor antagonistic activity, CHO cells expressing human orexin-2 receptor; format: cell-based; settings: read-out: OX2 IC50
T2 construct: expressed in transfected cells; host or cells: Chinese hamster ovary (CHO) cells
T2 sequence (O43614 1-444): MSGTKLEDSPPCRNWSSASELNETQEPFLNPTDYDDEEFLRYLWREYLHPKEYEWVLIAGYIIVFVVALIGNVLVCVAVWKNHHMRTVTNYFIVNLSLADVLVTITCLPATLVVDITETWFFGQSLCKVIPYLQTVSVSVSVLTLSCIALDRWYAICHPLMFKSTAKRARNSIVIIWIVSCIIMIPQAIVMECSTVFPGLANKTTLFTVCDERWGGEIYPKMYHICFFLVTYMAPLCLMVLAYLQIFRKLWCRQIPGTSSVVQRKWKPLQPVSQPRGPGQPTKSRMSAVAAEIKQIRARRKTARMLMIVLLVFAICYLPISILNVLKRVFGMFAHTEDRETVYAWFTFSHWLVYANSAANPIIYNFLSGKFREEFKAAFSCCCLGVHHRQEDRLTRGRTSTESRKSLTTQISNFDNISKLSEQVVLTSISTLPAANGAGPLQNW
Method: as §1, §2, §3, §4, §5

[1] = 3 nM orexin-A as agonist, not normalized, *2/*3 = geometric mean of n = 2/3 values

Row | SMILES | IC50 (human orexin-1 receptor) | IC50 (human orexin-2 receptor; [1]) | IC50 (human orexin-2 receptor)
1 | Cc1cccc(-c2sc(C)nc2C(=O)N2CCSC2CNC(=O)c2ccn3ccsc23)c1 (racemic) [Example 4, rac-Pyrrolo[2,1-b]thiazole-7-carboxylic acid [3-(2-methyl-5-m-tolyl-thiazole-4-carbonyl)-thiazolidin-2-ylmethyl]-amide] | 2 nM | 2 nM | 
2 | Cc1cccc(-c2sc(C)nc2C(=O)N2CCSC2CNC(=O)c2ccc(C(F)(F)F)c3oc(C)cc23)c1 (racemic) [Example 11, rac-2-Methyl-7-trifluoromethyl-benzofuran-4-carboxylic acid [3-(2-methyl-5-m-tolyl-thiazole-4-carbonyl)-thiazolidin-2-ylmethyl]-amide] | 17 nM | 63 nM | 
3 | Cc1nc(-c2cccc(Cl)c2)c(C(=O)N2CCSC2CNC(=O)c2cccc3c2CCO3)s1 (racemic) [Example 29, rac-2,3-Dihydro-benzofuran-4-carboxylic acid {3-[4-(3-chloro-phenyl)-2-methyl-thiazole-5-carbonyl]-thiazolidin-2-ylmethyl}-amide] | 3 nM | 7 nM | 
4 | COc1cccc(-c2nc(C)sc2C(=O)N2CCSC2CNC(=O)c2cccc3c2CCO3)c1 (racemic) [Example 32, rac-2,3-Dihydro-benzofuran-4-carboxylic acid {3-[4-(3-methoxy-phenyl)-2-methyl-thiazole-5-carbonyl]-thiazolidin-2-ylmethyl}-amide] | 4 nM | 5 nM | 
5 | Cc1nc(-c2cccc(C(F)(F)F)c2)c(C(=O)N2CCSC2CNC(=O)c2nn(C)c3ccccc23)s1 (racemic) [Example 50, rac-1-Methyl-1H-indazole-3-carboxylic acid {3-[2-methyl-4-(3-trifluoromethyl-phenyl)-thiazole-5-carbonyl]-thiazolidin-2-ylmethyl}-amide] | 7 nM | 43 nM | 
6 | Cc1nc(C(=O)N2CCSC2CNC(=O)c2nn(C)c3ccccc23)c(-c2ccc(C(F)(F)F)cc2)s1 (racemic) [Example 61, rac-1-Methyl-1H-indazole-3-carboxylic acid {3-[2-methyl-5-(4-trifluoromethyl-phenyl)-thiazole-4-carbonyl]-thiazolidin-2-ylmethyl}-amide] | 16 nM | 28 nM | 
7 | Cc1nc(C(=O)N2CCSC2CNC(=O)c2cccc3c2CCO3)c(-c2ccc(F)cc2)s1 (racemic) [Example 77, rac-2,3-Dihydro-benzofuran-4-carboxylic acid {3-[5-(4-fluoro-phenyl)-2-methyl-thiazole-4-carbonyl]-thiazolidin-2-ylmethyl}-amide] | 4 nM | 4 nM | 
8 | Cc1nc(C(=O)N2CCSC2CNC(=O)c2cccc3c2OCCO3)c(-c2cccc(F)c2)o1 (racemic) [Example 95, rac-2,3-Dihydro-benzo[1,4]dioxine-5-carboxylic acid {3-[5-(3-fluoro-phenyl)-2-methyl-oxazole-4-carbonyl]-thiazolidin-2-ylmethyl}-amide] | 23 nM | 68 nM | 
9 | O=C(NCC1SCCN1C(=O)c1nc(C2CC2)sc1-c1cccc(F)c1)c1cccc2c1CCO2 (racemic) [Example 116, rac-2,3-Dihydro-benzofuran-4-carboxylic acid {3-[2-cyclopropyl-5-(3-fluoro-phenyl)-thiazole-4-carbonyl]-thiazolidin-2-ylmethyl}-amide] | 2 nM | 5 nM | 

Continued, values first:

Row | IC50 (human orexin-1 receptor) | IC50 (human orexin-2 receptor; [1]) | IC50 (human orexin-2 receptor) | SMILES
10 | 4 nM | 6 nM |  | Cc1cccc(-c2sc(C)nc2C(=O)N2CCSC2CNC(=O)c2cccc3ocnc23)c1 (racemic) [Example 17, rac-Benzooxazole-4-carboxylic acid [3-(2-methyl-5-m-tolyl-thiazole-4-carbonyl)thiazolidin-2-ylmethyl]-amide]
11 | 8 nM | 86 nM |  | Cc1nc(-c2ccc(F)cc2)c(C(=O)N2CCSC2CNC(=O)c2nn(C)c3ccccc23)s1 (racemic) [Example 39, rac-1-Methyl-1H-indazole-3-carboxylic acid {3-[4-(4-fluoro-phenyl)-2-methyl-thiazole-5-carbonyl]-thiazolidin-2-ylmethyl}-amide]
12 | 10 nM | 31 nM |  | Cc1ccc(-c2nc(C)sc2C(=O)N2CCSC2CNC(=O)c2cccc3c2OCCO3)cc1 (racemic) [Example 42, rac-2,3-Dihydro-benzo[1,4]dioxine-5-carboxylic acid [3-(2-methyl-4-p-tolyl-thiazole-5-carbonyl)-thiazolidin-2-ylmethyl]-amide]
13 | 4 nM | 10 nM |  | Cc1nc(C(=O)N2CCSC2CNC(=O)c2cccc3c2OCCO3)c(-c2ccccc2)s1 (racemic) [Example 57, rac-2,3-Dihydro-benzo[1,4]dioxine-5-carboxylic acid [3-(2-methyl-5-phenyl-thiazole-4-carbonyl)-thiazolidin-2-ylmethyl]-amide]
14 | 12 nM | 10 nM |  | Cc1ccc(-c2ccccc2C(=O)N2CCSC2CNC(=O)c2cccc3ncsc23)cc1C (racemic) [Example 72, rac-Benzothiazole-7-carboxylic acid [3-(3′,4′-dimethyl-biphenyl-2-carbonyl)-thiazolidin-2-ylmethyl]-amide]
15 | 14 nM | 11 nM |  | Cc1cccc(-c2oc(C)nc2C(=O)N2CCSC2CNC(=O)c2cccc3ncsc23)c1 (racemic) [Example 83, rac-Benzothiazole-7-carboxylic acid [3-(2-methyl-5-m-tolyl-oxazole-4-carbonyl)-thiazolidin-2-ylmethyl]-amide]
16 | 4 nM | 7 nM |  | Cc1nc(C(=O)N2CCSC2CNC(=O)c2cccc3ncsc23)c(-c2ccccc2)o1 (racemic) [Example 88, rac-Benzothiazole-7-carboxylic acid [3-(2-methyl-5-phenyl-oxazole-4-carbonyl)-thiazolidin-2-ylmethyl]-amide]
17 | 7 nM | 8 nM |  | COc1cccc(-c2oc(C)nc2C(=O)N2CCSC2CNC(=O)c2cccc3ncsc23)c1 (racemic) [Example 104, rac-Benzothiazole-7-carboxylic acid {3-[5-(3-methoxy-phenyl)-2-methyl-oxazole-4-carbonyl]-thiazolidin-2-ylmethyl}-amide]
18 | 7 nM | 10 nM |  | Cc1cccc(-c2sccc2C(=O)N2CCSC2CNC(=O)c2cccc3ncsc23)c1 (racemic) [Example 109, rac-Benzothiazole-7-carboxylic acid [3-(2-m-tolyl-thiophene-3-carbonyl)-thiazolidin-2-ylmethyl]-amide]
19 |  |  | 3 nM | COc1cccc(-c2nccnc2C(=O)N2CCSC2CNC(=O)c2cccc3ncsc23)c1 (racemic) [Example 196, rac-Benzothiazole-7-carboxylic acid {3-[3-(3-methoxy-phenyl)-pyrazine-2-carbonyl]-thiazolidin-2-ylmethyl}-amide]
